Columns and labels:
Assay type in all cases: binding
GRM5 = target: T1, GRM5 (Homo sapiens, UniProt P41594); assay: NanoBRET screen HiBiT-GRM5 in HEK293
T1 construct: purchased Promega (in-house HiBiT-GPCR construct library, NanoBRET)
Description: (§1) Each tracer candidate was screened across the entire library of HiBiT-GPCR constructs using NanoBRET as the detection modality. As depicted in Figure 4A, the specificity of interactions was evaluated through decrease in BRET due to competitive displacement of a bound tracer by excess parental compound. Each tracer was analyzed for binding to each HiBiT-GPCR fusion in the absence and in the presence of competing parental compound. Briefly, HEK293 cells were transfected with HiBiT-GPCR constructs diluted into promoterless DNA to reduce expression and maximize translocation to the cell surface. Each tracer candidate was then screened at concentrations of 1 μM and 0.1 μM across cells expressing these fusions. Cells were treated for 1.5 h with tracer either alone or in the presence of 20 μM competing parental compound (i.e., control). BRET was measured upon addition of purified LgBiT and subsequent complementation with HiBiT genetically fused to a GPCR. The specificity of interactions was assessed through a decrease in BRET signal due to competitive displacement of the bound tracer. To further gauge the robustness of these interactions, the fold response over the control (i.e., BRETtracer/BRETcontrol) was calculated. We chose a 1.5-fold response, which translates to ≥7-fold signal over noise as the minimal threshold required to score an interaction as positive. […]. Below we highlight the screening results obtained for our exemplary fluorescent tracers based on Clozapine, Amitriptyline and AZD1283.
(§2) HiBiT-GPCR DNA constructs were diluted in 10 mM Tris pH 8 to a final concentration of 0.01 μg/μL, arrayed in 96-well plates and stored at −20 °C. For transfection, HEK293 cells were suspended in Opti-MEM (without phenol red) supplemented with 2% fetal bovine serum (Seradigm) and 100 units/mL penicillin–streptomycin (Gibco) at a final concentration of 220,000 cells/mL and dispensed into white 96-well plates at 90 μL/well. Subsequent transfections and screens were carried using an Agilent Bravo Automated Liquid Handling Platform. First, the 96-well HiBiT DNA arrays were diluted 25-fold in Opti-MEM (without serum or phenol red) to a final concentration of 0.0004 μg/μL and 20 μL of the diluted DNAs were transferred into new 96-well plates. Next, promoterless carrier DNA (1 μg/μL) was diluted 25-fold (0.04 μg/μL) and then dispensed into the diluted arrays at 20 μL/well. Following brief mixing, Viafect transfection reagent (Promega) diluted 16-fold into Opti-MEM was dispensed into the plates at 40 μL/well. After mixing by pipetting, plates were incubated for 10 min on the pipetting station deck. The DNA-transfection reagent complexes were then added to plates containing cells. To facilitate the screen, 10 μL of DNA-transfection reagent complexes were added in duplicates to the top 4 and bottom 4 rows, resulting in two identical 48-well arrays per plate. Plates with transfected cells were incubated for 18–20 h at 37 °C/5% CO2. A screen of each tracer across the entire library using two different concentrations requires duplicate plates of transfected cells. Depending on the number of tracers being screened, transfections can be scaled up using the same ratios. The next day, for each tracer, four 20× screening solutions in tracer dilution buffer (Promega) were prepared: two duplicates at final concentration of 20 μM and two duplicates at a final concentration of 2 μM. A competing unmodified compound was added to one of each duplicate at a final concentration of 400 μM. The four resulting solutions were diluted 4-fold in Opti-MEM without serum or phenol red to generate 5× solutions (5 µM and 0.5 µM tracer +/− 100 μM competing compound). To screen the library, a BioTek MultiFlo FX liquid dispenser was used to dispense 22.5 µL of tracer solution to the top 4 rows and 22.5 µL tracer + competing compound solution to the 4 bottom rows. Plates were briefly mixed on an orbital shaker and incubated for 1.5 h at room temperature. […]

VIPR2 = target: T2, VIPR2 (Homo sapiens, UniProt P41587); assay: NanoBRET screen HiBiT-VIPR2 in HEK293
T2 construct: purchased Promega (in-house HiBiT-GPCR construct library, NanoBRET)
T2 sequence (P41587 24-438): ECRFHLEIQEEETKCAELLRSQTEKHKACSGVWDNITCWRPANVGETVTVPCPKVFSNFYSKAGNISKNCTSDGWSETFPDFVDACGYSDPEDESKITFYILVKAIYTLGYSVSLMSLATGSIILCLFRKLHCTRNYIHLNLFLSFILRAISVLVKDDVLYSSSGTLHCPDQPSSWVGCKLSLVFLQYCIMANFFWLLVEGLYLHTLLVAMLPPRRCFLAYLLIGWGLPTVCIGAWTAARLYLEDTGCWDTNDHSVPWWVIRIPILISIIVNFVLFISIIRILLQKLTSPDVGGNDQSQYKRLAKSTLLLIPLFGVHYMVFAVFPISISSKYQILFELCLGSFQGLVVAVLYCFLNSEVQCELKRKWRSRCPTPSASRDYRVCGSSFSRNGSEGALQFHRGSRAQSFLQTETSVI
Description: as §1, §2

LGR6 = target: T3, LGR6 (Homo sapiens, UniProt Q9HBX8); assay: NanoBRET screen HiBiT-LGR6 in HEK293
T3 construct: purchased Promega (in-house HiBiT-GPCR construct library, NanoBRET)
T3 sequence (Q9HBX8 25-967): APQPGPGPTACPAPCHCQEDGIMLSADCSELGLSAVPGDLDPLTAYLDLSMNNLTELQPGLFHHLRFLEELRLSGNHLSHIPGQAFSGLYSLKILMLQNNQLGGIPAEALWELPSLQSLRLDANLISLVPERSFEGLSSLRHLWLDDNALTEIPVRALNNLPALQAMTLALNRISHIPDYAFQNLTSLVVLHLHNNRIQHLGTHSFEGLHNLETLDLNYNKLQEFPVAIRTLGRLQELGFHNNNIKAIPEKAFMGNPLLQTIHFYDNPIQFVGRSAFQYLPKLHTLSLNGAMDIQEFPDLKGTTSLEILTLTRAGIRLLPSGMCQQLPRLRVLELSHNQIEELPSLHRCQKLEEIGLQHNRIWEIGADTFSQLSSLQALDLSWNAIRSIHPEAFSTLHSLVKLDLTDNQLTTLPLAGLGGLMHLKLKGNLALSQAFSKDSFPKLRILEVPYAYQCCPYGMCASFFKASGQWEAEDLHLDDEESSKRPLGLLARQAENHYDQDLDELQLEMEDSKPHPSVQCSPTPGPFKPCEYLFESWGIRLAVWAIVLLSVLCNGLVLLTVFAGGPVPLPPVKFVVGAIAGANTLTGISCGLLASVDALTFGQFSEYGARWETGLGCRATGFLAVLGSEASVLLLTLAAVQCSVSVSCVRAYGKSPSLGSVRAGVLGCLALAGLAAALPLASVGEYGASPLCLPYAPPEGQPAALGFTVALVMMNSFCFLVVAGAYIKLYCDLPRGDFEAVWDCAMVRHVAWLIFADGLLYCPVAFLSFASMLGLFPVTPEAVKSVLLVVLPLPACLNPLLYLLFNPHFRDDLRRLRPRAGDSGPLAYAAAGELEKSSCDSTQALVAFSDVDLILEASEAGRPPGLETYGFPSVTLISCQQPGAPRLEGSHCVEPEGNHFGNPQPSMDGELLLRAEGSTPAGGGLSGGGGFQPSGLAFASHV
Description: as §1, §2

T1 sequence (P41594 21-1212): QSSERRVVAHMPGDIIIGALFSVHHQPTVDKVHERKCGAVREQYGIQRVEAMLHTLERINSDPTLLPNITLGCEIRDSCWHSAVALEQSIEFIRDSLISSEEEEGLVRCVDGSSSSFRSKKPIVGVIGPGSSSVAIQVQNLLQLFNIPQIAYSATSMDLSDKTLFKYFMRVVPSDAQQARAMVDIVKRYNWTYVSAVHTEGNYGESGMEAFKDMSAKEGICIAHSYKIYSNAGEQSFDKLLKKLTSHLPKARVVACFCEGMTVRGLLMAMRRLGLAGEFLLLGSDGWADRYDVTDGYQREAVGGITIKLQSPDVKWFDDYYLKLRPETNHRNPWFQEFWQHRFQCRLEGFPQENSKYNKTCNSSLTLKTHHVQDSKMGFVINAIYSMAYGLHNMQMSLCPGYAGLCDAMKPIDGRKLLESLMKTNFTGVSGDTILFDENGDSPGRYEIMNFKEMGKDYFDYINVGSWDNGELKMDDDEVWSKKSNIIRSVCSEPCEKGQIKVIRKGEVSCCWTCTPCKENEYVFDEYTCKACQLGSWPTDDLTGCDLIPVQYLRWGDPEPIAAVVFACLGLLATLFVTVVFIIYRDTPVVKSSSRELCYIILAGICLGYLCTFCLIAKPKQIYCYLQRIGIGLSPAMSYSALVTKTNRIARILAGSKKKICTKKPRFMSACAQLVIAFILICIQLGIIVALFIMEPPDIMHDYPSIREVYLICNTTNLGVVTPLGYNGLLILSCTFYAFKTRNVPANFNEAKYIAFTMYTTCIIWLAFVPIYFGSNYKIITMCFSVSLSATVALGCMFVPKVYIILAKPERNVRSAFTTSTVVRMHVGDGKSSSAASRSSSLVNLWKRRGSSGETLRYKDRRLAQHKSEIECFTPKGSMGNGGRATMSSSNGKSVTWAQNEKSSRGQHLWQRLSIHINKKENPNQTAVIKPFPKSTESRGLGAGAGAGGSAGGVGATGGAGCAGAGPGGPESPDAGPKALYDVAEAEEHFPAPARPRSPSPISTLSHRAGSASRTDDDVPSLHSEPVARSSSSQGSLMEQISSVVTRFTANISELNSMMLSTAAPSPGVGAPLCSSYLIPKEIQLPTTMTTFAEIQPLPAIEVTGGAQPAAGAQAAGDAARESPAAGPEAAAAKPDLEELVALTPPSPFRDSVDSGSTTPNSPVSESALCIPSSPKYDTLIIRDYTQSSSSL

SMILES | NanoBRET Fold Response (GRM5; GRM5, 0.1μM tracer) | NanoBRET Fold Response (GRM5; GRM5, 1μM tracer) | NanoBRET Fold Response (VIPR2; VIPR2, 0.1μM tracer) | NanoBRET Fold Response (VIPR2; VIPR2, 1μM tracer) | NanoBRET Fold Response (LGR6; LGR6, 0.1μM tracer) | NanoBRET Fold Response (LGR6; LGR6, 1μM tracer) | NanoBRET Fold Response (GRM5; GRM5, tracer 0.1μM) | NanoBRET Fold Response (GRM5; GRM5, tracer 1μM) | NanoBRET Fold Response (VIPR2; VIPR2, tracer 0.1μM) | NanoBRET Fold Response (VIPR2; VIPR2, tracer 1μM) | also measured
COc1ccc2[nH]c(-c3ccc(CNC(=O)CCOCCOCCOCCOCCNC(=O)CCc4ccc5n4[B-](F)(F)[N+]4=C(c6ccc[nH]6)C=CC4=C5)cc3)c(CCNC(C)=O)c2n1 [AzomelatoninICO9-2-NB590] | – | – | – | – | – | – | – | – | – | – | NanoBRET Fold Response (GRM5; 0.1μM tracer): 0.97; NanoBRET Fold Response (GRM5; 1μM tracer): 1.03; NanoBRET Fold Response (VIPR2; 0.1μM tracer): 0.99; NanoBRET Fold Response (VIPR2; 1μM tracer): 1.12; NanoBRET Fold Response (LGR6; 0.1μM tracer): 0.62; NanoBRET Fold Response (LGR6; 1μM tracer): 0.95
O=C(CCOCCOCCOCCOCCNC(=O)CCc1ccc2n1[B-](F)(F)[N+]1=C(c3ccc[nH]3)C=CC1=C2)NCCCN1CCN(C2=Nc3cc(Cl)ccc3Nc3ccccc32)CC1 [Clozapine-a-2-NB590] | 0.99 | 1.10 | 1.14 | 0.89 | 1.03 | 0.66 | – | – | – | – | –
CN1CCN(C2=Nc3cc(Cl)ccc3Nc3ccc(CNC(=O)CCOCCOCCOCCOCCNC(=O)CCc4ccc5n4[B-](F)(F)[N+]4=C(c6ccc[nH]6)C=CC4=C5)cc32)CC1 [Clozapine-b-2-NB590] | 0.99 | 1.01 | 1.02 | 0.96 | 1.31 | 0.89 | – | – | – | – | –
CN1CCN(C2=Nc3cc(Cl)ccc3N(CC(=O)NCCOCCOCCOCCOCCNC(=O)CCc3ccc4n3[B-](F)(F)[N+]3=C(c5ccc[nH]5)C=CC3=C4)c3ccccc32)CC1 [Clozapine-c-2-NB590] | 0.99 | 1.12 | 0.97 | 0.86 | 0.89 | 0.91 | – | – | – | – | –
O=C(CCOCCOCCOCCOCCNC(=O)CCc1ccc2n1[B-](F)(F)[N+]1=C(c3ccc[nH]3)C=CC1=C2)NCCCN1CCN(C2=Nc3ccccc3Oc3ccc(Cl)cc32)CC1 [Loxapine-a-2-NB590] | – | – | – | – | – | – | 1.00 | 1.04 | 1.15 | 0.83 | NanoBRET Fold Response (LGR6; LGR6, tracer 0.1μM): 0.91; NanoBRET Fold Response (LGR6; LGR6, tracer 1μM): 1.25
COc1ccccc1N1CCN(CCCCN2C(=O)c3ccc(CNC(=O)CCOCCOCCOCCOCCNC(=O)CCc4ccc5n4[B-](F)(F)[N+]4=C(c6ccc[nH]6)C=CC4=C5)cc3C2=O)CC1 [NAN-190-2-NB590] | – | – | – | – | – | – | 0.96 | 1.04 | 1.05 | 1.03 | –
COc1ccccc1N1CCN(CCCCN2C(=O)c3ccc(CNC(=O)CCOCCNC(=O)c4ccc(CNC(=O)CCc5ccc6n5[B-](F)(F)[N+]5=C(c7ccc[nH]7)C=CC5=C6)cc4)cc3C2=O)CC1 [NAN-190-3-NB590] | – | – | – | – | – | – | 1.05 | 1.15 | 0.98 | 0.87 | NanoBRET Fold Response (LGR6; LGR6, tracer 0.1μM): 1.39; NanoBRET Fold Response (LGR6; LGR6, tracer 1μM): 0.60
